Measured values as given in patent US20050209278A1, “Piperidinyl- and piperazinyl-sulfonylmethyl hydroxamic acids and their use as protease inhibitors” (priority 2002, published 2005).

Legend:
[1] = molecular target: T1, MMP-2 (Homo sapiens, UniProt P08253); assay: In vitro MMP inhibition, Ki determination (fluorogenic substrate II); format: biochemical; conditions: value not in parenthesis; read-out: MMP-2 Ki
T1 construct: made in house; host or cells: MMP-2-transfected p2AHT2 cells
T1 sequence (P08253 110-660): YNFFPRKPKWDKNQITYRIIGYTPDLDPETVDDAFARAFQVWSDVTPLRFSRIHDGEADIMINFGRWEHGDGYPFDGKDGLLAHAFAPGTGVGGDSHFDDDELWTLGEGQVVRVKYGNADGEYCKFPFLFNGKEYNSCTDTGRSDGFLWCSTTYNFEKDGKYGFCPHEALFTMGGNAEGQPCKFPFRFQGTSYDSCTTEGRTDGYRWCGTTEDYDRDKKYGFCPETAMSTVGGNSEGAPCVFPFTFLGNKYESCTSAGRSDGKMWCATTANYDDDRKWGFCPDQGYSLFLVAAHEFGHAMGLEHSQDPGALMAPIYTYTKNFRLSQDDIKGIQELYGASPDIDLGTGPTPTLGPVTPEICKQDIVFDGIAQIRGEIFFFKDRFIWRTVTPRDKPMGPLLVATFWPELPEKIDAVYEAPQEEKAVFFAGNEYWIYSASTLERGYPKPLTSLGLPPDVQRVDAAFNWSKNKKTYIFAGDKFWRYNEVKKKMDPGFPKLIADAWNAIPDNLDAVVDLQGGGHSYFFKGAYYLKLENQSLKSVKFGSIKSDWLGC

[2] = molecular target: T2, MMP-13 (Homo sapiens, UniProt P45452); assay: as above; format: biochemical; conditions: value not in parenthesis; read-out: MMP-13 Ki
T2 construct: made in house; host or cells: baculovirus / insect cells
Method in brief: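 Room-temperature, 1 h incubation of APMA-activated recombinant human MMP-13 with 4 μM quenched substrate II (cleaved at Gly-Leu) in pH 7.5 Tris/NaCl/CaCl2 buffer. Inhibition appears as a slowed rise in 330/420 nm fluorescence. Single low enzyme and substrate levels were used for Ki.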

Row | SMILES | Ki [1] | Ki [2]
1 | COCCSc1ccc(N2CCN(S(=O)(=O)C3(C(=O)NO)CCOCC3)CC2)cc1 [Example 227] | 2.47 nM | 1.79 nM
2 | O=C(NO)C1(S(=O)(=O)N2CCN(c3ccccn3)CC2)CCOCC1 [Example 169] | 1.09 nM | 1.88 nM
3 | O=C(NO)C1(S(=O)(=O)N2CCN(c3ccc(OC(F)(F)C(F)F)cc3)CC2)CCSCC1 [Example 62] | 0.22 nM | 0.5 nM
4 | CCc1ccc(N2CCN(S(=O)(=O)C3(C(=O)NO)CCN(CCOC)CC3)CC2)cc1 [Example 193] | 1.21 nM | 1.77 nM
5 | O=C(NO)C1(S(=O)(=O)N2CCN(c3cnc(CCCC(F)(F)F)cn3)CC2)CCOCC1 [Example 209] | 3.79 nM | 3.32 nM
6 | CCCCOc1ccc(N2CCN(S(=O)(=O)C3(C(=O)NO)CCN(Cc4ncc[nH]4)CC3)CC2)cc1 [Example 247] | 0.686 nM | 0.166 nM
7 | CCCCOc1ccc(N2CCN(S(=O)(=O)C3(C(=O)NO)CCN(Cc4ccc(C)o4)CC3)CC2)cc1 [Example 246] | 1.2 nM | 0.396 nM
8 | CCCCOc1ccc(N2CCN(S(=O)(=O)C3(C(=O)NO)CCN(c4ccc(OC)c(OC)c4)CC3)CC2)cc1 [Example 229] | 2.67 nM | 1.01 nM
9 | O=C(NO)C1(S(=O)(=O)N2CCN(c3ccc(Cl)nn3)CC2)CCOCC1 [Example 198] | 8.28 nM | 59.9 nM

Continued by falling Ki [1], values first:

Row | Ki [1] | Ki [2] | SMILES
10 | 2370 nM | 1890 nM | O=C(NO)C1(S(=O)(=O)N2CCN(c3nncs3)CC2)CCOCC1 [Example 215]
11 | 9.28 nM | 5.88 nM | CCCCOc1ccc(N2CCN(S(=O)(=O)C3(C(=O)NO)CCN(c4ccc(C#N)cc4)CC3)CC2)cc1 [Example 225]
12 | 8.53 nM | 3.52 nM | CCCCOc1ccc(N2CCN(S(=O)(=O)C3(C(=O)NO)CCN(c4ccc5c(c4)OCO5)CC3)CC2)cc1 [Example 221]
13 | 6.17 nM | 8.07 nM | COCCN1CCC(C(=O)NO)(S(=O)(=O)N2CCN(c3ccccc3)CC2)CC1 [Example 195]
14 | 3.46 nM | 1.4 nM | CCCCOc1ccc(N2CCN(S(=O)(=O)C3(C(=O)NO)CCN(c4ccsc4)CC3)CC2)cc1 [Example 223]
15 | 2.57 nM | 0.61 nM | O=C(NO)C1(S(=O)(=O)N2CCN(c3ccc(COCC(F)(F)C(F)(F)F)cc3)CC2)CCOCC1 [Example 70]
16 | 2.02 nM | 0.94 nM | Cc1ccc(-c2ccc(N3CCN(S(=O)(=O)C4(C(=O)NO)CCOCC4)CC3)cc2)cc1 [Example 207]
17 | 1.57 nM | 0.57 nM | CCCCOc1ccc(N2CCN(S(=O)(=O)C3(C(=O)NO)CCN(C(=O)N(C(C)C)C(C)C)CC3)CC2)cc1 [Example 244]
18 | 0.986 nM | 0.578 nM | COCCN1CCC(C(=O)NO)(S(=O)(=O)N2CCN(c3ccc(CCCCC(C)C)cc3)CC2)CC1 [Example 191]
19 | 0.54 nM | 0.3 nM | O=C(NO)C1(S(=O)(=O)N2CCN(c3ccc(OCC(F)(F)C(F)(F)F)cc3)CC2)CCOCC1 [Example 212]
20 | 0.521 nM | 1.36 nM | COCCN1CCC(C(=O)NO)(S(=O)(=O)N2CCN(c3ccc(Br)cc3)CC2)CC1 [Example 201]
21 | 0.39 nM | 0.16 nM | COc1ccc(-c2ccc(N3CCN(S(=O)(=O)C4(C(=O)NO)CCOCC4)CC3)nc2)cc1 [Example 61]
22 | 0.34 nM | 0.24 nM | CCCCOc1ccc(N2CCN(S(=O)(=O)C3(C(=O)NO)CCN(C(=O)N4CCCCC4)CC3)CC2)cc1 [Example 243]
23 | 0.28 nM | 0.35 nM | O=C(NO)C1(S(=O)(=O)N2CCN(c3ccc(OC(F)(F)F)cc3)CC2)CCN(C2CC2)CC1 [Example 203]
